Measurements as given in US12239617B2, “Mono- and di-amidine endo-exonuclease inhibitors and methods for inhibiting endo-exonuclease activity” (MONTDOREX INC., priority 2017, dated 2025).

Legend:
[1] = system: Endo/exonuclease in Pneumocystis carinii; details: cited from earlier work
[2] = system: Lewis Lung cancer cells; assay: Lewis Lung cancer secondary lung tumours in mice after removal of the primary tumour; type: in vivo; details: treated after surgical removal of primary tumour
Method: Lewis Lung cancer cells are injected subcutaneously into standard laboratory mice […]. Thereafter, they rapidly formed solid tumours. The sizes of the tumours can be measured. Although the injected cells are derived from lung cancers, the tumours actually grow in the back of the mice. All animals were inoculated at the same site. Primary tumours were allowed to grow until they were 0.5-1.0 cm^3 in size. At this point, cells from the tumours start circulating in the blood streams of the mice. These circulating cells have the capacity to form secondary tumours in the lung. The primary tumours are removed surgically from the mice. The mice are then treated with the amidine compounds so as to try and control the growth of secondary tumours. The extent to which control has been achieved is measured by sacrificing the mice and by physically counting the new tumours that can be seen growing on the surfaces of the lungs.

[3] = system: HT29 Colon Cancer Cell Line; assay: MTT assay on HT29 Colon Cancer Cell Line; type: cell-based, human
Method: (§1) Cell lines from human colon adenocarcinoma (HT29), human breast adenocarcinoma (MCF7) and human cervical epithelioid carcinoma (HeLa) were obtained from the American Type Culture Collection (ATCC) and have ATCC accession numbers HTB-38, HTB-22, and CCL-2 respectively. The normal primary cell, NHDF, was obtained from Dr. Shirley Lehnert. These cells are normal human skin fibroblasts. The cells were grown in RPMI media supplemented with 10% FCS at 37° C. in a humidified incubator with 5% CO2.
(§2) Cell Survival—MTT assay: The MTT (3-[4,5-Dimethylthiazol-2-yl]-2,5 diphenyl tertrazolim bromide) method of determining cell growth/cytotoxicity is used to determine cell survival. MIT is a tetrazolium salt cleaved by mitochondrial dehydrogenases of living cells. Cleavage converts yellow, water soluble MTT to an insoluble, purple formazan crystal. The crystals can be solubilized with a 50% N,N-dimethylformamide (vol/vol), 20% SDS (wt/vol) solution (pH4.7), and absorbance determined at a wavelength of 570 nm. Dead cells will not cleave MTT and uncleaved MTT is not detectable at this wavelength. The amount of MTT that is cleaved increases with increasing cell numbers, and decreases as a result of cell cytotoxicity (Niks and Otto 1990, Hussain et al. 1993). Cells were harvested from cell cultures using a standard protocol (i.e. Trypsin/EDTA). The cells (1000 to 5000 cells depending on cell type in 50 μl) were then plated and incubated overnight at 37° C. The compound (e.g. the compound of formula (I); compound of formula (II); pentamidine; or the vehicle) was introduced. After 2 days of incubation at 37° C., 10 μl of a 5 mg/ml solution of MTT was then added to all the experimental wells as well as the media control well. The plates were further incubated for 4 hours. MTT solubilization buffer (100 μl) was then added and the plates were incubated overnight at 37° C. The plates were then read on an ELISA plate reader with absorbance at 570 nm and a reference at 630 nm.
(§3) Iniparib, Veliparib and Olaparib were also subjected to the MTT assay without an endo-exonuclease compound as controls.

[4] = system: H460 Lung Carcinoma Cell Line; assay: MTT assay on H460 Lung Carcinoma Cell Line; type: cell-based
Description: as §2, §3

[5] = system: human endo-exonuclease; assay: Endo-exonuclease inhibition assay (digestion of circular plasmid DNA, agarose gel); type: biochemical
Method: The human endo-exonuclease was isolated according to the method described by Liu and Chow et al (1995). The cultured cells were detached with trypsin-EDTA and the cell suspensions were centrifuged at 4° C. with a force of 700 g for 10 minutes. The cell pellets were washed twice with cold phosphate buffered saline (PBS). The cells were then resuspended and sonicated in 20 mM Tris-HCl, pH 7.5, containing 5 mM EDTA and 1 mM PMSF (buffer A). The resulting cell lysis suspensions were centrifuged at 4° C. at 10,000 g for 15 min. The supernatants were then loaded onto an antibody-protein A-Sepharose affinity column, as previously described by Chow and Resnick (1987). After washing extensively with buffer A (i.e. until the A280 of the eluates were zero), the column was then eluted with buffer A containing 3.5 M MgCl2 to elute the endo-exonuclease. The eluted endo-exonuclease was dialyzed extensively against buffer A with at least two changes of buffer and one change of distilled water. The endo-exonuclease was then concentrated by lyophilization.
The endo-exonuclease activities were determined by measuring the digestion of circular plasmid DNA following the exemplary set of steps. Superhelical pBR322 DNA (or YEp DNA) was treated with endo-exonuclease at 37° C. Reactions were stopped by the addition of a solution containing 5 mM EDTA, 1% SDS, 30% glycerol, and bromophenol blue. The resulting mixtures were then loaded onto a 0.7% agarose gel and electrophoresed for 3 hours at 70 V. The gels were stained with 100 ml of 0.5 μg/ml ethidium bromide solution. Endo-exonuclease activities were measured as the rate of conversion from RFI to RFII to RFIII and subsequent fragments.
For the inhibition assay, pentamidine, mono-amidine compounds according to the present teachings and di-amidine compounds according to the present teachings were added to the endo-exonuclease prior to the start of the nuclease reaction. In order to arrive at the measurements related to the % of cell growth of H661, the MTT assay as described above was performed. The resulting endo-exonuclease inhibition is shown in the Table 1 and Table 2 that follow: […]

[6] = system: MCF7 Breast Cancer Cell Line; assay: MTT assay on MCF7 Breast Cancer Cell Line; type: cell-based, human
Method: as §1, §2, §3

[7] = system: H661 (Lung Cancer Cell); assay: MTT assay, cell growth of H661 lung cancer cell; type: cell-based
Description: as §2, with “4 hours. […] The plates” for “4 hours. MTT solubilization buffer (100 μl) was then added and the plates were incubated overnight at 37° C. The plates”, “630 nm. […]” for “630 nm.”

[8] = cited from earlier work
[9] = Homo sapiens, HT-29, PARP inhibitor alone: Iniparib 42 μM, Veliparib 50 μM, Olaparib 73 μM
[10] = Homo sapiens, NCI-H460, PARP inhibitor alone: Iniparib 42 μM, Veliparib 50 μM, Olaparib 73 μM
[11] = Homo sapiens, PARP inhibitor alone: Iniparib 42 μM, Veliparib 50 μM, Olaparib 73 μM

## N=C(NC1CC1)c1ccc(-c2ccc(-c3ccc(C(=N)NC4CC4)cc3)o2)cc1 [2,5-bis [4-N-(cyclopropylguanyl)phenyl] furan]
[1]
  nuclease inhibition activity in P. carinii: showed nuclease inhibition activity

## c1cc(-c2ccc(-c3ccc(C4=NCCCN4)cc3)o2)ccc1C1=NCCCN1 [2,5-bis-p[3,4,5,6-tetrahydropyrimidyl)phenyl]furan]
[1]
  nuclease inhibition activity in P. carinii: showed nuclease inhibition activity

## CC(C)NC(=N)c1ccc(-c2ccc(-c3ccc(C(=N)NC(C)C)cc3)o2)cc1 [2,5-bis[4-(N-isopropylguanyl)phenyl]furan]
[1]
  nuclease inhibition activity in P. carinii: inhibits endo-exonuclease activity

## CC(C)CNC(=N)c1ccc(-c2ccc(-c3ccc(C(=N)NCC(C)C)cc3)o2)cc1 [2,5-bis[4-N-isobutylguanyl)phenyl]furan]
[1]
  nuclease inhibition activity in P. carinii: showed nuclease inhibition activity

## N=C(NCC1CC1)c1ccc(-c2ccc(-c3ccc(C(=N)NCC4CC4)cc3)o2)cc1 [2,5-bis[4-[(N-cyclopropylmethylguanyl)phenyl]furan]
[1]
  nuclease inhibition activity in P. carinii: showed nuclease inhibition activity

## N=C(N)c1ccc(-c2ccc(-c3ccc(C(=N)N)cc3)o2)cc1 [2,5-bis[4-guanylphenyl]furan]
[1]
  nuclease inhibition activity in P. carinii: showed nuclease inhibition activity

## N=C(NC1CCC1)c1ccc(-c2ccc(-c3ccc(C(=N)NC4CCC4)cc3)o2)cc1 [2,5-bis[(4-N-cyclobutylgunayl)phenyl]furan]
[1]
  nuclease inhibition activity in P. carinii: showed nuclease inhibition activity

## N=C(NC1CCCC1)c1ccc(-c2ccc(-c3ccc(C(=N)NC4CCCC4)cc3)o2)cc1 [2,5-bis[(4-N-cyclopentylguanyl)phenyl]furan]
[1]
  nuclease inhibition activity in P. carinii: showed nuclease inhibition activity

## N=C(Nc1ccccc1)c1ccc(OCCCCCOc2ccc(C(=N)Nc3ccccc3)cc2)cc1 [Di-Amidine A]
[2]
  Lung Cysts remaining (% of Control): 1.7 % of Control
[3]; MTDX101 33 μM alone
  % Inhibition: 15%
[3]; MTDX101 336 μM alone
  % Inhibition: 64%
[4]; MTDX101 33 μM alone
  % Inhibition: 25%
[4]; MTDX101 336 μM alone
  % Inhibition: 85%
[5]
  IC50: 58 µM
[6]; MTDX101 33 μM alone
  % Inhibition: 20%
[6]; MTDX101 336 μM alone
  % Inhibition: 80%

## CC(C)NC(=N)c1ccc(OCCCCCOc2ccc(C(=N)NC(C)C)cc2)cc1 [Di-Amidine B]
[2]
  Lung Cysts remaining (% of Control): 0.22 % of Control
[5]
  IC50: 14 µM

## NC(=O)c1ccc(I)c([N+](=O)[O-])c1 [Iniparib]
[3]; [9]
  inhibition at 42 µM: 4.8%
[4]; [10]
  inhibition at 42 µM: 0.8%
[6]; [11]
  inhibition at 42 µM: 5%

## O=C(c1cc(Cc2n[nH]c(=O)c3ccccc23)ccc1F)N1CCN(C(=O)C2CC2)CC1 [Olaparib]
[3]; [9]
  inhibition at 73 µM: 14%
[4]; [10]
  inhibition at 73 µM: 11%
[6]; [11]
  inhibition at 73 µM: 17%

## N=C(N)c1ccc(OCCCCCOc2ccc(C(=N)N)cc2)cc1 [Pentamidine, pentamidine]
[2]
  Lung Cysts remaining (% of Control): 4.5 % of Control
[7]; 2.5 μM, negative value = cell killing
  H661 (Lung Cancer Cell) (% of Cell Growth at 2.5 μM): 20 ± 2%
[7]; Table 1
  death of the cancer cells (H661): Death of the cancer cells was not observed
[5]
  IC50: 50 µM
[5]; 50 μM
  Endo-exonuclease Inhibition at 50 μM (%): 50%
[8]; 4 mg/kg to 7 mg/kg for two days every two weeks
  safety for patients: safe for patients
[8]; human, in vivo
  toxicity (known clinical data): low toxicity

## C[C@]1(c2nc3c(C(N)=O)cccc3[nH]2)CCCN1 [Veliparib]
[3]; [9]
  inhibition at 50 µM: 6%
[4]; [10]
  inhibition at 50 µM: 19%
[6]; [11]
  inhibition at 50 µM: 13%
